Counter-ions that a name gives are not always drawn.
Columns and labels:
[1] = system: Xanthomonas strains Xcv 135; test: Crystal violet biofilm inhibition (attachment) assay on PVC microtiter wells; format: cell-based; settings: 28° C., 6 hours, static
Method: A Standard Crystal Violet reporter assay is employed to assess the effect of compounds from the 2-amino on the formation of biofilms. Among others, the following strains are tested:
Bacteria are allowed to form biofilms in a multi-well plate in the absence or presence of one or more compounds. Planktonic (or free growing) bacteria are then removed, wells washed vigorously, and crystal violet added. Crystal violet stains the remaining bacteria which, following ethanol solubilization, is quantitated by spectrophotometry (A540). Time-dependent and concentration-dependent analysis of each compound are performed.
Biofilm formation on PVC microtiter wells was accomplished using Xanthomonas strains Xcv 135 (known to infect peppers and tomatoes) and Xcv 5 (known to infect tomatoes but not peppers) as models. The Starting Optical Density (OD at 600 nm) for biofilm attachment assay was 0.55, the temperature for this assay was 28° C., the duration of incubation was 6 hours under, and the assay was static.
Biofilm inhibition results are as follows for screens with Xcv 135. The Xcv 5 strain is tested in the same manner.

[2] = system: bacterial spot (caused by the bacterium Xanthomonas euvesicatoria) of pepper, copper-resistant strains; test: Field test in pepper plants inoculated with Xanthomonas euvesicatoria (bacterial spot); format: in vivo
Method: To test the effects of the triazole derivatives for plant biofilm inhibition activity, the compound of Formula (II)(a)(5)(D) was used as an exemplary compound (the “biofilm inhibitor/disperser” or “BFI” in the text hereinafter of Example 4).
The compound was evaluated under field conditions to determine whether it controls or enhances control of bacterial spot (caused by the bacterium Xanthomonas euvesicatoria) of pepper when applied alone or in tank-mixtures with a copper (Kocide 3000), an antibiotic (GWN-9350, gentamicin), or a putative plant defense activator (Prophyt). Tests were performed April-July 2008 at the North Carolina Agricultural Research Service Sandhills Research Station, Montgomery County.
EXPERIMENTAL DESIGN and TREATMENT APPLICATIONS: Each treatment consisted of two 7-plant rows running east-west replicated in a four-block completely randomized design. Each 7-plant row was 10.5 ft×2 ft. This area was used to calculate the quantity of spray material extrapolated for a per acre basis. Plants of bell pepper cultivar ‘X3R-Camelot’ were transplanted to the field on Apr. 24, 2008. On May 6, two plants in the south row of each plot of each treatment were inoculated with a suspension of copper-resistant strains of the bacterial pathogen. These plants were destined to serve as the inoculum source for each plot. Each of the spray test materials was mixed in 1.5 liters of water and applied using a backpack sprayer by making a single pass on each side of the plant row. Treatments were applied weekly starting immediately after the plants had been inoculated May 6 followed by 7 additional weekly sprays for a total of 8 applications through June 24.
DATA: Ratings of foliar disease were started May 22, when symptoms were observed on the inoculated plants and continued weekly through June 25. Disease was most severe on the inoculated plants and then spread to the non-inoculated plants. Data from these two groups (inoculated plants and the non-inoculated) were evaluated separately. The results are expressed as disease progress over time using the calculated Area Under the Disease Progress Curve (AUDPC). Two fruit harvests were done; July 1 and 8. Because there had been plant loss in some plots, the number of plants per plot was counted and yields (number of fruit and weight) were calculated and are reported on a per plant basis per treatment.

[3] = system: Candida albicans biofilms; test: Inhibition of C. albicans biofilm formation, crystal violet reporter assay; format: cell-based; settings: 24 h, read-out: inhibition of C. albicans biofilm formation
Method: It was screened at 100 μM for its ability to inhibit to the formation of C. albicans biofilms using a crystal violet reporter assay. Briefly, biofilms were allowed to form for 24 hours in a 96-well microtiter plate in the absence or presence of 100 μM of the compound. The wells were subsequently washed thoroughly with water to remove free-floating and loosely adherent fungus, and then treated with crystal violet. Crystal violet stains the remaining surface attached fungus (i.e. the biofilm), which following solublization, can be quantified by spectrophotometry (A540).
Each member of the pilot library was assayed at 100 μM for its ability to inhibit the formation of C. albicans biofilms using the crystal violet reporter assay.
Procedure to Determine the Inhibitory Effect of Test Compounds on C. albicans, C. neoformans and a Mixed S. epidermidis/C. albicans Biofilm Formation:
Inhibition assays were performed by taking an overnight culture of yeast or yeast/bacteria strain and subculturing it at an OD600 of 0.05 into YPD (Yeast extract, peptone and dextrose (BD 242820)) media for the yeast alone or tryptic soy broth for the S. epidermidis/C. albicans. […] Biofilm inhibition was quantitated by measuring the OD540 of each well in which a negative control lane wherein no biofilm was formed served as a background and was subtracted out.

[4] = system: C. albicans; test: Growth curve / colony count analysis, C. albicans; format: cell-based, Candida albicans; settings: 100 μM (data not shown)
[5] = two fruit harvests, per plant basis

| SMILES | % Inhibition at 20 μM (vs. Xcv 135) [1] | Mean AUDPC for entire plot ([2]; foliar disease, 0-9 rating scale, AUDPC, entire plot, 8 weekly sprays) | Mean AUDPC for inoculated plants ([2]; foliar disease, 0-9 rating scale, Area Under the Disease Progress Curve, inoculated bell pepper plants, 8 weekly sprays, rate/acre as in treatment line) | Mean fruit yield (lb)/plant [2, 5] | Mean number pepper fruit/plant [2, 5] | inhibition at 100 µM [3] | growth curves: anti-biofilm activity fungicidal or not [4] |
| --- | --- | --- | --- | --- | --- | --- | --- |
| Nc1nc(CCc2cn(CCc3c[nH]c4ccccc34)nn2)c[nH]1 [Formula (II)(i)(a)(2)(J)] | 0% |  |  |  |  |  |  |
| C/C(=C\c1ccccc1)Cn1cc(CCCCCCc2c[nH]c(N)n2)nn1 [Formula (II)(a)(6)(D), 4-{6-[1-(2-Methyl-3-phenyl-allyl)-1H-[1,2,3]triazol-4-yl]-hexyl}-1H-imidazol-2-ylamine hydrochloride] | 85% |  |  |  |  |  |  |
| C/C(=C\c1ccccc1)Cn1cc(CCCCCc2c[nH]c(N)n2)nn1 [Formula (II)(a)(5)(D), 4-{5-[1-(2-Methyl-3-phenyl-allyl)-1H-[1,2,3]triazol-4-yl]-pentyl}-1H-imidazol-2-ylamine hydrochloride] | 86% | 42 a | 113 b | 1.46 b lb | 4.8 b | 12% | non-fungicidal |

Reference: patent US9351491B2, “Inhibition and dispersion of biofilms in plants with imidazole-triazole derivatives” (priority 2008, dated 2016)
